Here are results for 8 compounds from patent US20260216198A1, “GPR35 MODULATORS” (ThirtyFiveBio Limited, priority 2023, published 2026).

A value given as a limit tells only on which side of the number the result lay.

For the experiment, the target named is T1, GPR35 (Homo sapiens, UniProt Q9HC97).
T1 construct: expressed in transfected cells; host or cells: CHO-K1 cells co-expressing mitochondrial aequorin and Gα16
T1 sequence (Q9HC97 whole entry): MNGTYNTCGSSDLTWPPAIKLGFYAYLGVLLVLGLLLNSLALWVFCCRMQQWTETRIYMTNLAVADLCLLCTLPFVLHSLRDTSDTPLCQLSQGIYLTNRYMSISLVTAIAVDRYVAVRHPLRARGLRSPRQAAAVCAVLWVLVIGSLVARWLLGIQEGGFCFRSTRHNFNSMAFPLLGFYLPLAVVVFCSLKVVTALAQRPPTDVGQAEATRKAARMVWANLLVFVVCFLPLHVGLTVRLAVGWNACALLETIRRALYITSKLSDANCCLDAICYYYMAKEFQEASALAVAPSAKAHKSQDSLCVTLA
Nature of the experiment: cellular GPR35 phospho-ERK HTRF assay (inhibition of lodoxamide-induced phospho-ERK signal). Format: cell-based. As to conditions: GPR35-CHO-K1-mt aequorin-Gα16 cell line; agonist lodoxamide at EC80; read-out: Activity Group (IC50, inhibition of GPR35 agonist-induced phospho-ERK signal). In short, it runs like this: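 GPR35-CHO-K1-mt aequorin-Gα16 cells were stimulated with lodoxamide at its EC80. After lysis, phospho-ERK1/2 (Thr202/Tyr204) was read by HTRF sandwich with Eu-cryptate/d2 antibodies at 665 nm. IC50 is the modulator concentration giving 50% inhibition of the window between agonist-plus-vehicle and no-agonist controls.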
Consider `CSc1ncc(C(=O)Nc2ccc(OCCc3ccccc3)cc2)cc1-c1cnc(C)c(C(=O)O)c1` [Example 94, 2-Methyl-5-[2-methylsulfanyl-5-[[4-(2-phenylethoxy)phenyl]carbamoyl]-3-pyridyl]pyridine-3-carboxylic acid], for which the IC50 was in the range of 1 to 10 µM.

Regarding `COCCOc1ncc(C(=O)Nc2ccc(OCCc3ccccc3)cc2)cc1-c1cnc(C)c(C(=O)O)c1` [Example 95, 5-[2-(2-Methoxyethoxy)-5-[[4-(2-phenylethoxy)phenyl]carbamoyl]-3-pyridyl]-2-methyl-pyridine-3-carboxylic acid], the IC50 was 1 to 10 µM. Under `Cc1ncc(-c2cccc(C(=O)Nc3ccc(CS(=O)(=O)c4ccc(Cl)cc4)cc3)c2)cc1C(=O)O` [Example 96, 5-[3-[[4-[(4-Chlorophenyl)sulfonylmethyl]phenyl]carbamoyl]phenyl]-2-methyl-pyridine-3-carboxylic acid] stands below 1 µM; under `Cc1ncc(-c2cccc(C(=O)Nc3ccc(CS(=O)(=O)c4cccc(Cl)c4)cc3)c2)cc1C(=O)O` [Example 97, 5-[3-[[4-[(3-Chlorophenyl)sulfonylmethyl]phenyl]carbamoyl]phenyl]-2-methyl-pyridine-3-carboxylic acid], 1 to 10 µM. Under `Cc1ncc(-c2cccc(C(=O)Nc3ccc(CS(=O)(=O)c4ccccc4Cl)cc3)c2)cc1C(=O)O` [Example 98, 5-[3-[[4-[(2-Chlorophenyl)sulfonylmethyl]phenyl]carbamoyl]phenyl]-2-methyl-pyridine-3-carboxylic acid] stands 1 to 10 µM; under `COc1ccc(S(=O)(=O)Cc2ccc(NC(=O)c3cccc(-c4cnc(C)c(C(=O)O)c4)c3)cc2)cc1` [Example 99, 5-[3-[[4-[(4-Methoxyphenyl)sulfonylmethyl]phenyl]carbamoyl]phenyl]-2-methyl-pyridine-3-carboxylic acid], 1 to 10 µM.

As to `COc1cccc(S(=O)(=O)Cc2ccc(NC(=O)c3cccc(-c4cnc(C)c(C(=O)O)c4)c3)cc2)c1` [Example 100, 5-[3-[[4-[(3-Methoxyphenyl)sulfonylmethyl]phenyl]carbamoyl]phenyl]-2-methyl-pyridine-3-carboxylic acid], the IC50 fell in the range of 1 to 10 µM. Under `Cc1ccc(S(=O)(=O)Cc2ccc(NC(=O)c3cccc(-c4cnc(C)c(C(=O)O)c4)c3)cc2)cn1` [Example 101, 2-Methyl-5-[3-[[4-[(6-methyl-3-pyridyl)sulfonylmethyl]phenyl]carbamoyl]phenyl]pyridine-3-carboxylic acid] stands 1 to 10 µM.
